These results are taken from PMC12494099, “Discovery and Characterization of Novel IKZF1/3 Glue Degraders against Multiple Hematological Cancer Cell Lines” (Oncology Research, 2025).

A value given as a limit tells only on which side of the number the result lay.

Holding throughout (format): cell-based
The target of one experiment is T1, IKZF1-HiBiT (Homo sapiens, UniProt Q13422+Q96SW2).
T1 construct: expressed in transfected cells; host or cells: HEK293T
Put plainly: Quantitative degradation assay using the HiBiT system (HEK293T). Particulars: HEK-293T; HEK293T IKZF1-HiBiT, 24 h; read-out: maximal degradation (Dmax) on IKZF1. Here is the method: (§1) An in vitro quantitative degradation assay utilizing the HiBiT system was carried out as previously described. To evaluate the degradation of IKZF1, IKZF2, and IKZF3 proteins, HEK293T cell lines stably expressing IKZF1-, IKZF2-, IKZF3-, GSPT1- or CK1α-HiBiT were cultured in 96-well plates at 12,000 cells per well. […] After the treatment, cell lysis was carried out using the Nano-Glo HiBiT Lytic Detection System (#N3040, Promega). All lysis operations were strictly carried out according to the manufacturer’s specific protocol. Then, the SpectraMax iD3 instrument (Molecular Devices, San Jose, CA, USA) was used to detect the luminescent signals released by the HiBiT-tagged neosubstrates.
(In general: The HiBiT peptide binds its large partner to form an active luciferase.)

A further experiment deals with T2, IKZF3-HiBiT (Homo sapiens, UniProt Q96SW2+Q9UKT9).
T2 construct: expressed in transfected cells; host or cells: HEK293T
Described as above. The following applies: HEK-293T; HEK293T IKZF3-HiBiT, 24 h; read-out: maximal degradation (Dmax) on IKZF3. Here is the method:
as §1

A further experiment relates to NCI-H929. Put plainly: Cell viability (CCK-8) assay. Particulars: Homo sapiens, NCI-H929, 96 h. Here is the method:
(§2) The plated at a density of 15,000 cells per well, and each well contained 100 µL of medium. Subsequently, different compounds (MGD-AX, MGD-BX, MGD-CX) were added to each well. […] To evaluate the antiproliferative effects of these compounds, the Cell Counting Kit-8 (CCK-8, #CX007, Epizyme, Shanghai, China) was used. All procedures were carried out in strict accordance with the manufacturer’s instructions (Dojindo Laboratories, Mamoto Ken, Japan).

Experiment [1] deals with MV-4-11. Put plainly: Cell viability (CCK-8) assay. Particulars: Homo sapiens, 96 h, CCK-8. Here is the method:
as §2

In the next experiment the test system is Ocl-Ly3. Description: Cell viability (CCK-8) assay. Particulars: 96 h, CCK-8. How it is done:
as §2

Experiment [2] deals with NCI-H929 (MM), MV-4-11(AML), and Ocl-Ly3 (DLBCL) cells. Put plainly: Cell viability (CCK-8) assay, statements on the whole three-line panel. The following applies: for antiproliferative activity (in words): compared with the prototypical IMiDs. Here is the method:
Multiple cell lines (NCI-H929, OPM-2, U937, Ocl-Ly3, RPMI-8226, MOLM-13, Skm-1, MUTZ-1, SU-DHL-4, TMD8, U2932, WSU-DLCL-2, MV-4-11 and KG-1 cells) were plated into 96-well plates. The plated at a density of 15,000 cells per well, and each well contained 100 µL of medium. Subsequently, different compounds (MGD-AX, MGD-BX, MGD-CX) were added to each well. These compounds’ concentrations were set at 0, 0.01, 0.033, 0.1, 0.33, 1, 3.3, 10 and 33 μM, and the cells were incubated with the compounds for 96 h. To evaluate the antiproliferative effects of these compounds, the Cell Counting Kit-8 (CCK-8, #CX007, Epizyme, Shanghai, China) was used. All procedures were carried out in strict accordance with the manufacturer’s instructions (Dojindo Laboratories, Mamoto Ken, Japan). The half maximal inhibitory concentrations (IC50) values, which represent the concentrations of the test compounds that can inhibit 50% of cell activity, were calculated using GraphPad Prism 8.0 (GraphPad Software Inc., San Diego, CA, USA).

In experiment [3] the test system is control vector NCI-H929 cells. Description: Cell apoptosis assay, control vector cells. Here is the method: […] NCI-H929 and MV-4-11 cells were seeded at a density of 1 × 10^6 cells/well in 6-well tissue culture-treated plates. According to the manufacturer’s protocol (Santa Cruz Biotechnology, Inc, Dallas, TX, USA), CRBN CRISPR/Cas9 knockout Plasmid (#sc-412142), CRBN HDR plasmid (#sc-412142-HDR), UltraCruz® Transfection Reagent (#sc-395739) were pre-mixed in Plasmid Transfection Medium (#sc-108062) at a 1:1:2 mass ratio, and cells were transiently transfected in a 37°C, 5% CO2 incubator. After 72 h of infection, the medium was replaced with complete medium containing 3 μg/mL puromycin for 5–7 days. On day 7, GFP-positive cells were sorted as single cells into 96-well plates. Isolated single-cell clones were screened via western blot analysis, using wild-type NCI-H929 or MV-4-11 cells as positive controls.
(§3) Cells (NCI-H929 and MV-4-11) were seeded at a density of 1 × 10^6 cells per well into 6-well dishes. […] Apoptosis was assessed using an Annexin V-FITC kit (#ab14085; Abcam, MA, USA) on a FACS Calibur Flow Cytometer (Becton Dickinson, Franklin Lakes, NJ, USA). For cell cycle analysis, cells were fixed in 75% ethanol (−20°C/overnight), washed with PBS (pH = 7.2–7.4, 1×), treated with RNase A (0.2 mg/mL, 37°C/30 min), stained with PI (10 μg/mL), and analyzed on the same instrument. Finally, the samples were analyzed using a FACS Calibur Flow Cytometer.

For experiment [4], the system named is MV-4-11. Description: Cell apoptosis assay (Annexin V flow cytometry). The following applies: MV-4-11, 10 µM. Here is the method:
as §3
On the technique in general: Flow cytometry measures light scatter and fluorescence of single cells or particles in a stream.

A further experiment relates to SU-DHL-4. Description: Cell viability (CCK-8) assay. Particulars: Homo sapiens, SU-DHL-4, 96 h, read-out: IC50 (μM) SU-DHL-4. How it is done: as §2
A further experiment deals with OPM-2. Description: Cell viability (CCK-8) assay. The following applies: Homo sapiens, OPM-2, 96 h, read-out: IC50 (μM) OPM-2. Here is the method:
as §2

The test system of another experiment is KG-1. Put plainly: Cell viability (CCK-8) assay. The following applies: Homo sapiens, KG-1, 96 h, read-out: IC50 (μM) KG-1. How it is done: as §2
Another experiment concerns MOLM-13. Description: Cell viability (CCK-8) assay. Particulars: Homo sapiens, MOLM-13, 96 h, read-out: IC50 (μM) MOLM-13. Here is the method: as §2
Another experiment concerns TMD8. Description: Cell viability (CCK-8) assay. The following applies: Homo sapiens, TMD8, 96 h, read-out: IC50 (μM) TMD8. Here is the method:
as §2

The subject of the next experiment is RPMI-8226. Put plainly: Cell viability (CCK-8) assay. Particulars: Homo sapiens, RPMI-8226, 96 h, read-out: IC50 (μM) RPMI-8226. How it is done: as §2
The subject of a further experiment is WSU-DLCL-2. Put plainly: Cell viability (CCK-8) assay. The following applies: Homo sapiens, WSUDLCL2, 96 h, read-out: IC50 (μM) WSU-DLCL-2. How it is done: as §2
Another experiment concerns Skm-1. Description: Cell viability (CCK-8) assay. Particulars: Homo sapiens, SKM-1, 96 h, read-out: IC50 (μM) Skm-1. How it is done: as §2
The test system of the next experiment is U937. Put plainly: Cell viability (CCK-8) assay. The following applies: Homo sapiens, U-937, 96 h, read-out: IC50 (μM) U937. How it is done:
as §2

The subject of a further experiment is U2932. Description: Cell viability (CCK-8) assay. The following applies: Homo sapiens, U2932, 96 h, read-out: IC50 (μM) U2932. Here is the method:
as §2

A further experiment concerns MUTZ-1. Put plainly: Cell viability (CCK-8) assay. Particulars: 96 h, read-out: IC50 (μM) MUTZ-1. Here is the method: as §2

T2 sequence (Q9UKT9 whole entry): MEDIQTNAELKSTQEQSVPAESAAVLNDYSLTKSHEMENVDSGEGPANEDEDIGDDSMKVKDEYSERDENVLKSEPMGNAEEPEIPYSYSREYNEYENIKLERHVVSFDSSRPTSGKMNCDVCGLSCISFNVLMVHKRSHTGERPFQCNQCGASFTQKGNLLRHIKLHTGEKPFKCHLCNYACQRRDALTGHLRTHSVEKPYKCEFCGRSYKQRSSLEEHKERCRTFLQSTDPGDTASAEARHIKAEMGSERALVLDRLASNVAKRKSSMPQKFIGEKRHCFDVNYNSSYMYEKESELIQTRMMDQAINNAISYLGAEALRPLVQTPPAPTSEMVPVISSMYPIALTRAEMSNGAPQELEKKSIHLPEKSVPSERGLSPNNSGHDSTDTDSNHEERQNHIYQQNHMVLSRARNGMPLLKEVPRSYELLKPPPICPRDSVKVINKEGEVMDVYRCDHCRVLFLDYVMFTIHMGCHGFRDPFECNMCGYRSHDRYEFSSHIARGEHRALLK
T2 sequence (Q96SW2 whole entry): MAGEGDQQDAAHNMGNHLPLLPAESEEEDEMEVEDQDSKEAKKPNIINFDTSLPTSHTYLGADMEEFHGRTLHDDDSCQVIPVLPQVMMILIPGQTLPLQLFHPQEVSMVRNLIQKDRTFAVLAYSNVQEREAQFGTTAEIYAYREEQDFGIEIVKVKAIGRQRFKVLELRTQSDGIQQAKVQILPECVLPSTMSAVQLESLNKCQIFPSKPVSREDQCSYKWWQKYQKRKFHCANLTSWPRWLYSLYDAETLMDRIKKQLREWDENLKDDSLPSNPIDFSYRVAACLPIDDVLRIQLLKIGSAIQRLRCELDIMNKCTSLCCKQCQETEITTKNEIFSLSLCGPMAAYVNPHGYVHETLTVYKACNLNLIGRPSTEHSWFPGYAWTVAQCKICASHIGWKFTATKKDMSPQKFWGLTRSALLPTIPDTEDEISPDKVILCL
T2 sequence (Q16531 whole entry partner): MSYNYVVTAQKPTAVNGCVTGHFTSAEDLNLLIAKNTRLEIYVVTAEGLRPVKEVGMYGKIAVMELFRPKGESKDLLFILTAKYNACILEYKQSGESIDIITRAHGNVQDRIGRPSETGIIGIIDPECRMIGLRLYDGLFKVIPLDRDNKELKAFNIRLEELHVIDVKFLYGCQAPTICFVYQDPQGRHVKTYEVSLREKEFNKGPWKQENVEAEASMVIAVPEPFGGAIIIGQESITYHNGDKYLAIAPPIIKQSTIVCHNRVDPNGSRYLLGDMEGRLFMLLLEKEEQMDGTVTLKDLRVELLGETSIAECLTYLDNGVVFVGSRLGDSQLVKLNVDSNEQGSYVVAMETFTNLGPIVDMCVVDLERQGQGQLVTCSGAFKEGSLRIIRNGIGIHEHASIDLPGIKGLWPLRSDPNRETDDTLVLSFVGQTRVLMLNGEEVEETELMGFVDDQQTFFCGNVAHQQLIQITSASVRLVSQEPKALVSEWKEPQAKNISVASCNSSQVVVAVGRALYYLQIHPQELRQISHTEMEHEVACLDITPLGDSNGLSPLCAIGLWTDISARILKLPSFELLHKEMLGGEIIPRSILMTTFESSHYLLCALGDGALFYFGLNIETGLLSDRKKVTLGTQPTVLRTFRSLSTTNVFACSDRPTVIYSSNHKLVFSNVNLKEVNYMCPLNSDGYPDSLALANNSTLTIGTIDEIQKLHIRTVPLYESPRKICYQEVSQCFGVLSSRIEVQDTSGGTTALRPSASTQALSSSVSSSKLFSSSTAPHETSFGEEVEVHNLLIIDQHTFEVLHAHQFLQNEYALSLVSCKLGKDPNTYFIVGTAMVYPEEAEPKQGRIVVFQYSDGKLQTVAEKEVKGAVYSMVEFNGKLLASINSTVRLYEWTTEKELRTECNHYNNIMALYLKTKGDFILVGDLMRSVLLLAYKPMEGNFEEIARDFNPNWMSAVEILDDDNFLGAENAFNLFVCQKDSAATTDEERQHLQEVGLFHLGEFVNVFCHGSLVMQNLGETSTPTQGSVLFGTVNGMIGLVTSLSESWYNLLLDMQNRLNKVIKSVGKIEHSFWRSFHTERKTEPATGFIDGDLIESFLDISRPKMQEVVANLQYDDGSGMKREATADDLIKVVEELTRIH
T1 sequence (Q13422 whole entry): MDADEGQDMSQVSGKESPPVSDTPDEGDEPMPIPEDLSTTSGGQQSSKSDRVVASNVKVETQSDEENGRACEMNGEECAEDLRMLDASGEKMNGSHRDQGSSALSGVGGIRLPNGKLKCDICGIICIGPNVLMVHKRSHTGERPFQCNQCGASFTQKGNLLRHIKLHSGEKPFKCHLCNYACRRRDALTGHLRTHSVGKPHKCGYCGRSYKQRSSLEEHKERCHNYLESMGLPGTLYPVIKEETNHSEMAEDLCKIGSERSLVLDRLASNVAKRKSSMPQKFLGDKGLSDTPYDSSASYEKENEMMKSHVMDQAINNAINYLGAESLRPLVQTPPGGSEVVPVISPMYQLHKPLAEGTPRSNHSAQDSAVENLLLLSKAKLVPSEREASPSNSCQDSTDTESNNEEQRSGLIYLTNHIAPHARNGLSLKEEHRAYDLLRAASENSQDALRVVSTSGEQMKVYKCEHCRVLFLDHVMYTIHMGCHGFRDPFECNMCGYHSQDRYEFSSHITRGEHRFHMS
T1 sequence (Q96SW2 whole entry): as the sequence (Q96SW2 whole entry) above
T1 sequence (Q16531 whole entry partner): as the sequence (Q16531 whole entry partner) above

On to `Cc1nc2cccc(N)c2c(=O)n1C1CCC(=O)NC1=O` (stereo not drawn) [Avadomide, reference compound], for which the results for the Dmax at IKZF1-HiBiT and on IKZF3-HiBiT were 80.4% and 83.1%, respectively. Also, the IC50 – broadly, the concentration at which inhibition is half-maximal – in the experiment with NCI-H929 was 0.2 µM; in the experiment on MV-4-11 [1] (MV4-11, 96 h), 0.85 µM; in the experiment with Ocl-Ly3, 15.5 µM.
With `O=C1CCC(NC(=O)c2cccc(C(=O)N3CCCCC3)c2)C(=O)N1` (stereo not drawn) [MGD-A11, N-(2,6-dioxopiperidin-3-yl)-3-(piperidine-1-carbonyl)benzamide], the “antiproliferative activity (in words)” value in experiment [2] is on record as “mild activity”. Moreover, the IC50 with NCI-H929 is 8.33 ± 0.8 µM; with MV-4-11 [1] (MV4-11, 96 h), 5.47 ± 0.52 µM; with Ocl-Ly3, 23 ± 2.19 µM.
In the same order, the values of `O=C1CCC(NC(=O)c2cccc(C(=O)N3CCOCC3)c2)C(=O)N1` (stereo not drawn) [MGD-A14, N-(2,6-dioxopiperidin-3-yl)-3-(morpholine-4-carbonyl)benzamide] are “mild activity”, 7.43 ± 0.71 µM, 5.1 ± 0.49 µM and 10.6 ± 1.01 µM.
For `O=C1CCC(NC(=O)c2cccc(C(=O)N3CCCC3)c2)C(=O)N1` (stereo not drawn) [MGD-A10, N-(2,6-dioxopiperidin-3-yl)-3-(pyrrolidine-1-carbonyl)benzamide], the “antiproliferative activity (in words)” value in [2] is on record as “mild activity”. The IC50 was 14.2 ± 1.36 µM in the experiment with NCI-H929; 8.34 ± 0.79 µM in the experiment on MV-4-11 [1] (MV4-11, 96 h); above 33 µM with Ocl-Ly3.
On to `Nc1cccc2c1C(=O)N(C1CCC(=O)NC1=O)C2=O` (stereo not drawn) [Pomalidomide, reference compound], for which, in experiment [3], the “apoptosis (in words)” value is “induced significant apoptosis”. In addition, the apoptosis rate with MV-4-11 [4] turned out to be 15.5%. The Dmax (usually the largest share of the target that was removed) on IKZF1-HiBiT is 76.2%; on IKZF3-HiBiT, 69.4%. The concentration for half-maximal inhibition (IC50) in the experiment with SU-DHL-4 is 22.4 µM; in the experiment with OPM-2, 0.204 µM; with KG-1, 17.2 µM; with MOLM-13 it was 12.4 µM; with TMD8 it was 15.3 µM; with RPMI-8226, 5.21 µM. Moreover, the IC50 with WSU-DLCL-2 amounted to 18.1 µM; with NCI-H929, 2.18 ± 0.21 µM; in the experiment on Skm-1, 20.1 µM; in the experiment with MV-4-11 [1] (MV4-11), 16.1 ± 1.54 µM; with U937, 13.8 µM; in the experiment on Ocl-Ly3 it was 18.3 ± 1.74 µM. For the same molecule, the IC50 came to 13.7 µM in the experiment with U2932 and 17.3 µM in the experiment on MUTZ-1.
On to `CC1CCN(C(=O)c2cccc(C(=O)NC3CCC(=O)NC3=O)c2)CC1` (stereo not drawn) [MGD-A12, N-(2,6-dioxopiperidin-3-yl)-3-(4-methylpiperidine-1-carbonyl)benzamide], for which, in experiment [2] (NCI-H929, MV-4-11 and Ocl-Ly3 cells), the “fold reduction in potency compared with MGD-A5” value is given as “more than 3 fold”. The IC50 with NCI-H929 amounted to 11.9 ± 1.14 µM; in the experiment with MV-4-11 [1] (MV4-11, 96 h), 14.3 ± 1.36 µM; in the experiment on Ocl-Ly3, 15.3 ± 1.46 µM.
